The results in this text go back to patent publication US8034371B2, “Intranasal compositions” (Archimedes Development Limited, priority 2003, dated 2011).

The nature of data set [1]: Saturated solubility of zolpidem tartrate in SBE-CD solutions with and without chitosan, UV 296 nm (Example 2). The data set is classed as physicochemical. The settings on record: aqueous SBE-CD solution, 18 °C, aqueous with cosolvent or surfactant or cyclodextrin, thermodynamic from solid. Here is the method: A stock solution was prepared containing 400 mg/ml SBE-CD in water and then dilutions made to 100, 150, 200, 250 and 300 mg/ml. Into 2 ml portions of the stock and diluted SBE-CD solutions was dissolved 10 mg of chitosan glutamate (Protasan UPG213, NovaMatrix, Drammen, Norway). To each of these samples of SBE-CD/chitosan solution and to each of six chitosan-free 2 ml samples of SBE-CD solutions were added 140 mg samples of zolpidem tartrate. The samples were left to stir overnight at room temperature (18° C.). If during this time all the drug dissolved, further amounts were added until a suspension was formed (i.e. saturated drug solution formed). After further stirring for up to 72 hours, suspensions were filtered (0.45 μm filter, Gelman, Portsmouth, UK) to recover saturated zolpidem tartrate solutions. The filtrate samples were diluted in water and the UV absorbance at 296 nm measured. By reference to a calibration curve of UV absorbance (296 nm) vs. zolpidem concentration, the concentration of zolpidem in the samples was calculated. Solubility data are presented in Table 2 and presented graphically in FIG. 1.

A short description of data set [2]: Semi-quantitative solubility of zolpidem tartrate in different cyclodextrin solutions (Example 1). The format is physicochemical. The settings on record: aqueous cyclodextrin solution, aqueous with cosolvent or surfactant or cyclodextrin, thermodynamic from solid, room temperature. Here is the method: A semi-quantitative comparison was made of the ability of different cyclodextrins to enhance the aqueous solubility of zolpidem tartrate.
Aqueous solutions were prepared containing 200, 300 and 400 mg/ml of three types of cyclodextrin. These were hydroxypropyl-β-cyclodextrin (HP-CD) (Cavamax® W7 HP Pharma, Wacker, Germany), methylated-β-cyclodextrin (M-CD) (Cavamax® W7 M Pharma, Wacker) and sulfobutylether-β-cyclodextrin (SBE-CD) (Captisol®, CyDex, USA). 25 mg samples of zolpidem tartrate (ZMC, Zheijang, Hangzhou, China) were added to a 0.5 ml portion of each cyclodextrin solution. The mixtures (containing 50 mg/ml drug) were stirred overnight at room temperature. If drug dissolved then more was added. If undissolved drug remained then an additional 0.5 ml of cyclodextrin solution was added and stirring continued. From this experiment an estimate could be made of zolpidem tartrate solubility in the different cyclodextrin solutions.

Data set [3] is described as follows: Pharmacokinetic performance of intranasal and IV zolpidem formulations in sheep (Example 6). The settings on record: for Tmax: intranasal, zolpidem dose 20 mg, mean n = 5. The method, then: A group of five female sheep was used, each weighing around 45 kg. The formulations were administered to a randomised cross-over design. […] This dose was provided by transferring 3.5 ml of the test formulation into a glass bottle, attaching a Valois VP7 spray pump and actuator to the bottle, priming the pump and then administering two 0.1 ml sprays into each nostril.
Blood samples were collected over a 360 minute period following dosing and plasma separated. Plasma samples were assayed by an HPLC method for zolpidem content. Pharmacokinetic parameters were calculated from the plasma data.

Where a name gives a salt, the structure may show the parent alone. A value given as a limit tells only on which side of the number the result lay.

For `Cc1ccc(-c2nc3ccc(C)cn3c2CC(=O)N(C)C)cc1` [zolpidem tartrate], the solubility is 46.2 mg/mL in data set [1] (SBE-CD 100 mg/ml, 5 mg/ml chitosan glutamate, read-out: Zolpidem tartrate solubility in presence of 5 mg/ml chitosan glutamate); 41.9 mg/mL in data set [1] (SBE-CD 100 mg/ml, no chitosan, read-out: Zolpidem tartrate solubility); 51.9 mg/mL in data set [1] (SBE-CD 150 mg/ml, 5 mg/ml chitosan glutamate, read-out: Zolpidem tartrate solubility in presence of 5 mg/ml chitosan glutamate); 46.5 mg/mL in data set [1] (SBE-CD 150 mg/ml, no chitosan, read-out: Zolpidem tartrate solubility); 55.6 mg/mL in data set [1] (SBE-CD 200 mg/ml, 5 mg/ml chitosan glutamate, read-out: Zolpidem tartrate solubility in presence of 5 mg/ml chitosan glutamate); 57.3 mg/mL in data set [1] (SBE-CD 200 mg/ml, no chitosan, read-out: Zolpidem tartrate solubility). Besides, the solubility in data set [1] (SBE-CD 250 mg/ml, 5 mg/ml chitosan glutamate, read-out: Zolpidem tartrate solubility in presence of 5 mg/ml chitosan glutamate) was 55.9 mg/mL; in data set [1] (SBE-CD 250 mg/ml, no chitosan, read-out: Zolpidem tartrate solubility), 56.1 mg/mL; in data set [1] (SBE-CD 300 mg/ml, 5 mg/ml chitosan glutamate, read-out: Zolpidem tartrate solubility in presence of 5 mg/ml chitosan glutamate), 63.7 mg/mL; in data set [1] (SBE-CD 300 mg/ml, no chitosan, read-out: Zolpidem tartrate solubility), 57.5 mg/mL; in data set [1] (SBE-CD 400 mg/ml, 5 mg/ml chitosan glutamate, read-out: Zolpidem tartrate solubility in presence of 5 mg/ml chitosan glutamate), 68.1 mg/mL; in data set [1] (SBE-CD 400 mg/ml, no chitosan, read-out: Zolpidem tartrate solubility), 69 mg/mL. Further, the solubility was in the range of 25 to 31 mg/mL in data set [2] (HP-CD 200 mg/ml); 31 to 36 mg/mL in data set [2] (HP-CD 300 mg/ml); 36 to 50 mg/mL in data set [2] (HP-CD 400 mg/ml); 25 to 31 mg/mL in data set [2] (M-CD 200 mg/ml); 31 to 36 mg/mL in data set [2] (M-CD 300 mg/ml); 31 to 36 mg/mL in data set [2] (M-CD 400 mg/ml). Also, the solubility in data set [2] (SBE-CD 200 mg/ml) was > 50 mg/mL; in data set [2] (SBE-CD 300 mg/ml) it was 50 to 56 mg/mL; in data set [2] (SBE-CD 400 mg/ml), ~60 mg/mL.
For the molecule `Cc1ccc(-c2nc3ccc(C)cn3c2CC(=O)N(C)C)cc1` [zolpidem, N,N,6-trimethyl-2-(4-methylphenyl)-imidazo[1,2-a]pyridine-3-acetamide], the time of peak concentration (Tmax) in data set [3] (female, plasma, inhaled or intranasal, 20 mg, Tmax) is 13 min; in data set [3] it was 16 min. In addition, the “Effect of inclusion of chitosan on bioavailability” value in data set [3] (intranasal solution with vs without chitosan) is “significantly enhanced”.
